The values that follow come from publication PMC5219937 (Bioconjugate chemistry, 2015).

Like-named read-outs stand apart in the source and are kept apart here.

For series [1] the following is noted: cited from earlier work.
Series [2] deals with type 2 diabetic C57BL/6 db/db mice. The experiment in a line: Hypoglycemic effect after subcutaneous injection in db/db mice. Format: in vivo, mouse.

Exenatide: commercial exendin-4: the circulating half-life in series [1] is 1.5 to 3.6 h.

In series [2] (dose 14 nmol/kg (Figure S8b)), “Albiglutide: a exendin-4-albumin fusion protein, FDA approved, once a week administration” yielded a blood glucose level of 11.88 mmol/L. Besides, the “time required to rebound to a glucose level of 8.35 mmol/L (hypoglycemic duration)” value in series [2] (dose 69 nmol/kg) was 11 h; in series [2] (dose 123 nmol/kg (Figure S8d)) it was 28 h. Moreover, the lowest glucose level in series [2] (dose 69 nmol/kg, three mice, mean) came to 7.03 mmol/L; in series [2] (dose 123 nmol/kg (Figure S8c)) it was 6.67 mmol/L. In addition, in series [1], the half-lifetime is 96 to 170 h.

With “GLP-1: 30-amino-acid peptide hormone secreted from gut endocrine L cells”, the half-lifetime in series [1] (endogenous GLP-1, degraded by DPP-4 once secreted) is 0.017 to 0.033 h.
